In patent publication US6656690B2, “Mass spectrometric methods for biomolecular screening” (priority 1998, dated 2003):

How the values were obtained:
[1] = target: 16S A site 27mer RNA; assay: ESI-FTICR mass spectrometric (MASS) binding assay, 16S A-site 27-mer RNA model; design: species or system prokaryotic
Experimental: (§1) The ESI-FTICR mass spectrum depicted in FIG. 26 was acquired from a […] mixture of untagged 16S and tagged 18S in the presence of an equimolar mixture of five aminoglycosides. It is to be understood that other biomolecules may be used in place of the aminoglycosides. The aminoglycosides have been selected from two classes of 2-deoxystreptamines: 4,5-disubstituted (paromomycin, and lividomycin), and 4,6-disubstituted (tobramycin, sisomicin, and bekanamycin), present at 500 nM each. Complexes corresponding to 1:1 binding of individual aminoglycosides were observed between 16S and all members of the aminoglycoside mixture, with the apparent affinities estimated from the abundances of the respective complexes differing substantially. Signal intensities from the complexes with paromomycin (m/z 1925.572) and lividomycin (m/z 1954.790) are consistent with MS-measured dissociation constants of 110 nM and 28 nM, respectively. The intensities of 16S complexes with tobramycin (m/z 1895.960), bekanamycin (m/z 1899.171), and sisomicin (m/z 1891.972) were reduced, consistent with solution dissociation constants of […]. Wang, et al., Biochemistry, 1997, 36, 768-779. […] The spectrum is calibrated using multiple isotope peaks of the (M-5H^+)^5− and (M-4H^+)^4− charge states of the free RNA as internal mass standards which brackets the m/z range in which complexes are observed. The average mass measurement error obtained for the complexes in FIG. 26 is 2.1 ppm when m/z differences are measured between the most abundant (4 ^13C) isotope peak of 16S and each complex. This post calibration scheme is easily automated which enables rapid, high precision mass measurements of affinity selected ligands against multiple targets in a high throughput mode.
A preferred first step of MASS screening involves mixing the RNA target (or targets) with a combinatorial library of ligands designed to bind to a specific site on the target molecule(s). Specific noncovalent complexes formed in solution between the target(s) and any library members are transferred into the gas phase and ionized by ESI. As described herein, from the measured mass difference between the complex and the free target, the identity of the binding ligand can be determined. The dissociation constant of the complex can be determined in two ways: if a ligand with a known binding affinity for the target is available, a relative Kd can be measured by using the known ligand as an internal control and measuring the abundance of the unknown complex to the abundance of the control, alternatively, if no internal control is available, Kd's can be determined by making a series of measurements at different ligand concentrations and deriving a Kd value from the “titration” curve.
Electrospray ionization Fourier transform ion cyclotron resonance mass spectrometry was performed on a solution containing […] 16S RNA (the 27-mer construct shown in FIG. 24) and 500 nM paromomycin is depicted in FIG. 13. A 1:1 complex was observed between the paromomycin and the RNA consistent with specific aminoglycoside binding at the A-site. The insets show the measured and calculated isotope envelopes of the (M-5H+)5− species of the free RNA and the RNA-paromomycin complex. High precision mass measurements were acquired using isotope peaks of the (M-5H+)^5− and (M-4H^+)^4− charge states of the free RNA as internal mass standards and measuring the m/z difference between the free and bound RNA.
ESI-MS measurements of a solution containing a fixed concentration of RNA at different concentrations of ligand were obtained. By measuring the ratio of bound:unbound RNA at varying ligand concentrations, the Kd was determined by 1/slope of the “titration curve”. The MS derived value of 110 nM is in good agreement with previously reported literature value of 200 nM. […]

[2] = test system: 18S A site model; assay: ESI-FTICR mass spectrometric (MASS) binding assay, mass-tagged 18S A-site 27-mer RNA model; design: species or system eukaryotic; conditions: aminoglycosides 500 nM each, mixture with untagged 16S and tagged 18S
Experimental: as §1, with “The” for “The spectrum is calibrated using multiple isotope peaks of the (M-5H^+)^5− and (M-4H^+)^4− charge states of the free RNA as internal mass standards which brackets the m/z range in which complexes are observed. The”, “This post calibration scheme is easily automated which enables rapid, high precision mass measurements of affinity selected ligands against multiple targets in a high throughput mode.” left out

NC[C@@H]1O[C@H](O[C@H]2[C@@H](O)[C@H](O[C@@H]3[C@@H](O)[C@H](N)C[C@H](N)[C@H]3O[C@H]3O[C@H](CO)[C@@H](O)[C@H](O)[C@H]3N)O[C@@H]2CO)[C@H](N)[C@@H](O)[C@@H]1O [paromomycin]
Kd ([1]; ESI-FTICR MS, 16S A site 27mer, read-out: MS-measured dissociation constant (KD)): 0.11 µM | complexes observed with 16S (in words) ([1]; aminoglycosides 500 nM each, mixture with untagged 16S and tagged 18S): 1:1 complex and High affinity complexes | complexes observed with 18S (in words) [2]: complete absence of complexes
